Values of other authors, collected in patent US20060153842A1, “Immunosuppressive combination and its use in the treatment or prophylaxis or insulin-producing cell graft rejection” (priority 2001, published 2006).

Tested on: islet allograft in male rats
Conditions: male rats hyperglycemic with streptozotocin; pre-administration the day before and the day of grafting

## CCCCCCCCc1ccc(CCC(N)(CO)CO)cc1 [FTY720, 2-amino-2-[2-(4-octylphenyl)ethyl]propane-1,3-diol]
  prolonged islet allograft survival: up to 20 days
